Results on one compound are retold here after patent publication US20230233617A1, “METHODS FOR DIFFERENTIATING STEM CELLS INTO DOPAMINERGIC PROGENITOR CELLS” (JZ CELL TECHNOLOGIES AB, priority 2020, published 2023).

Series [1] concerns hPSC-derived NSCs. The series is described as follows: Regional identity of hPSC-derived NSCs at 9 DDC after RA pulse in dSMADi conditions. It is filed as cell-based, human. The method, then: (§1) Cells were fixed for 12 min at room temperature (RT) in 4% paraformaldehyde in PBS, rinsed 3 times in PBST (PBS with 0.1% Triton-X100), and blocked for 1 hour at RT with blocking solution (3% FCS/0.1% Triton-X100 in PBS). Cells were then incubated with primary antibodies overnight at 4° C., followed by incubation with fluorophore-conjugated secondary antibodies for 1 hour at RT. Both primary and fluorophore-conjugated secondary antibodies were diluted in blocking solution. Primary antibodies used are listed in Supplementary Table 1. Appropriate Alexa (488, 555, 647)-conjugated secondary antibodies (Molecular Probes) were used.

For series [2], the system named is hPSC-derived NSCs. The series is described as follows: Ventral regional identity of hPSC-derived NSCs at 9 DDC in dSMADi+SAG conditions (NKX2.1, LMX1A, PHOX2B, NKX2.2). The note with it: 9 DDC. The format is cell-based, human.
In another series the test system is β-catenin. Kind of series: β-CATENIN nuclear levels in cultures at 2 DDC. The settings on record: dSMADi+SAG. It is filed as cell-based, human. The source says: FIG. 2: Specification of NSC with ventral midbrain identity using RA and SHH signaling. (a) Schematic of hPSCs differentiation with timeline of treatment with RA and activator of SHH signaling (SAG) (top). Immunocytochemistry for indicated markers at 9 DDC in cultures differentiated in dSMADi+SAG-condition and pulsed with RA for 1-, 2- or 4-days (bottom). (b) Relative gene expression (FPKM) of indicated genes in 9 DDC cultures differentiated in dSMADi+SAG-conditions and treated with RA for the indicated time. (c) Heatmap and hierarchical clustering of differentially expressed genes of 9 DDC cultures differentiated in dSMADi+SAG-condition and treated with RA for the indicated time. (d) Schematic of gene expression profiles defining distinct ventral progenitors in the diencephalon (Di), midbrain (MB) and hindbrain (HB) positions. (e) Expression of genes associated with the indicated regional progenitors at 14 DDC in cultures differentiated in dSMADi+SAG+RA^2D condition. (f) Immunocytochemistry for β-CATENIN (left) and boxplots of β-CATENIN nuclear levels (right) in cultures at 2 DDC differentiated in dSMADi+SAG-condition (control) and treated with RA or CHIR99021. Boxplot, whiskers define 5th and 95th percentile. Asterisks, Student t test; **p<0.01, ***p<0.001. (g) Immunocytochemistry for the indicated markers in cultures at 14 DDC differentiated in dSMADi+SAG+RA^2D condition. […]

The next series concerns CYP26A1. Kind of series: CYP26A1 expression in hPSC cultures. It is filed as cell-based, human. The note with it: 50-1,000 nM RA, dSMADi.
For series [3], the system named is hPSC-derived ventral midbrain dopaminergic progenitors. Kind of series: Specification of caudal midbrain identity (EN1 immunocytochemistry). It is filed as cell-based, human. The settings on record: RA^2D+SAG. How it is done:
(a) (a) Immunocytochemical analysis of ventral MB progenitor identities at 14 DDC. […] Nuclei of cells visualized with DAPI staining. (b) Immunocytochemistry of dopaminergic neuron marker TH and caudal midbrain marker EN1 expression in 40 DDC cultures differentiated in indicated conditions.
as §1
Mechanisms underlying specification of midbrain dopamine neuron subtypes remains poorly resolved, but is likely to involve sub-patterning of ventral midbrain dopaminergic progenitors along the mediolateral and rostro-caudal axes of the midbrain (Brignani, S, and Pasterkamp, R. J., Front. Neuroanat. 11, 1-18 (2017)). WNT1 signaling emanating from the isthmic organizer at the midbrain-hindbrain boundary establish polarity of midbrain progenitors along the rostro-caudal axis by inducing a caudal^HIGH-to-rostral^LOW expression gradient of the homeodomain proteins EN1 and EN2 (Wurst, W. and Bally-Cuif, L. Nat. Rev. Neuroscience 2, 99-108 (2001)).

The subject of another series is CYP26. The settings on record: cited from earlier work.

Method for CYP26A1: (d) Effect of RA concentration (50, 100, 300, 500 and 1,000 nM RA) on CYP26A1 expression in 1 DDC cultures differentiated in dSMADi-condition. (e) Temporal expression profile of CYP26A1 in cultures differentiated in dSMADi and pulsed with no RA or 300, 500 or 1,000 nM of RA for 2 days. […] (g) Relative gene expression of indicated genes in 9 DDC cultures differentiated in RA^1D+SAG condition and in the presence of different concentrations of the CYP26 inhibitor R115866. […] (c-e) values, mean±S.D.
Total RNA was isolated using Quick-RNA Mini Prep Plus kit (Zymo Research). cDNA was prepared using Maxima First Strand cDNA synthesis kit (Thermo Fisher Scientific). Quantitative Real-Time PCR was performed in a 7500 Fast Real Time PCR system thermal cycler using Fast SYBR Green PCR Master Mix (Applied Biosystems). Analysis of gene expression was performed using the 2-ΔΔCt method, where relative gene expression was normalized to GAPDH transcript levels.

On to `CC1=C(/C=C/C(C)=C/C=C/C(C)=C/C(=O)O)C(C)(C)CCC1` [RA, all-trans retinoic acid], for which the “regional identity of NSCs” value in the series on hPSC-derived NSCs [1] (200 nM RA for 1 day (RA^1D)) was “FB-like character”; in the series with hPSC-derived NSCs [1] (200 nM RA for 2 days (RA^2D)) it was “FOXG1^−/OTX2^+/HOXA2^− MB-like character”; with hPSC-derived NSCs [1] (200 nM RA for 3 days (RA^3D)), “FOXG1^−/OTX2^−/HOXA2^+/HOXB4^− rostral HB”; with hPSC-derived NSCs [1] (200 nM RA for 4 days (RA^4D)) it was “FOXG1^−/OTX2^−/HOXA2^+/HOXB4^+ caudal HB”. The “ventral identity of NSCs” value was “expressed the FB-specific markers FOXG1, SIX3, SIX6, and LHX2” in the series with hPSC-derived NSCs [2] (RA^1D+SAG); “LMX1A^+/LMX1B^+/FOXA2^+/OTX2^+ identity characteristic of vMB mDA neuron progenitors” in the series with hPSC-derived NSCs [2] (RA^2D+SAG); “expressed HOX genes and the ventral markers NKX2.2, PHOX2B, NKX6.1, and NKX6.2 typical of cranial motor neuron (MN) progenitors of the HB” with hPSC-derived NSCs [2] (RA^3D+SAG or RA^4D+SAG). Moreover, in the series on hPSC-derived NSCs [2] (RA^2D+SAG, 100 nM or 800 nM RA), the “identity of NSCs” value is “LMX1A^+/NKX2.1^− NSCs were generated but at lower numbers”. In the series with hPSC-derived NSCs [2] (RA^2D+SAG), the “RA concentration at which the vast majority of NSCs expressed LMX1A+/NKX2.1− vMB-identity” value is 200 to 400 nM. Also, the “time at which the 48 hour RA-pulse must be initiated for effective induction of vMB NSC identity” value with hPSC-derived NSCs [2] (dSMADi+SAG) is reported as 0-2 DDC. The β-catenin in nuclei result in the series with β-catenin was “no accumulation of β-catenin in nuclei”. In the series with CYP26A1, the CYP26A1 expression result was “concentration-dependent activation and adaptive temporal expression of CYP26A1”. Besides, the “identity of ventral midbrain progenitors (EN1)” value in series [3] (14DDC) is on record as “LMX1A^+/OTX2^+/EN1^− identity”. The “EN1 expression in TH+ dopamine neurons” value in series [3] (40DDC) was “a small proportion of TH^+ dopamine neurons expressed EN1”. In the series on CYP26, the “susceptibility to CYP26-mediated oxidation” value is recorded as “substrates for CYP26-mediated oxidation”.
